Assays:
Type in all cases: in vivo
[1] = system: Alternanthera philoxeroides (alligatorweed); assay: Preemergence field trial in seeded rice, % visual weed control; settings: USA, 22 to 54 days after application
Experimental: (§1) Field trials were conducted in rice and tree crops using standard herbicide small plot research methodology. Plot size was typical for small plot research, varying from 2 to 4 meters (m) wide by 6.7 to 10 meters long. There were 3 to 4 replicates per treatment. Soil types ranged from medium to fine soil texture. Rice or cereal crops were sown by mechanical direct dry seeding as per normal local cultural practices. The rice or cereal crop was grown using normal cultural practices for fertilization, watering, flooding and maintenance to ensure good growth of the crop and the weeds.
(§2) Treatments were applied by backpack sprayer using either compressed air or CO2, at spray pressures from 124 to 276 kilopascals (kPa). Spray tips were typically Flat Fan Teejet nozzles, such as TJ8002 to TJ110015 or XR11001. Spray volumes varied from 93.5 to 250 liters per hectare (L/ha). Penoxsulam was applied as the commercial products Grasp SC (240 gr ai/L) or Clipper 20 OD (20 grams ai/L); pendimethalin was applied as the commercial product Prowl EC.
(§3) For each treatment, the appropriate formulated product amount to treat the plot area, to achieve the desired application rate, based on unit area of application (hectare), was calculated, measured, and mixed in water prior to applying with the backpack sprayer. Treatments were rated as compared to the untreated control plots.
(§4) The treated plots and control plots were rated blind at various intervals after application. Ratings were based of Percent (%) Visual weed control, where 0 corresponds to no injury and 100 corresponds to complete kill.
(§5) Colby's equation was used to determine the herbicidal effects expected from the mixtures (Colby, S. R. Calculation of the synergistic and antagonistic response of herbicide combinations. Weeds 1967, 15, 20-22).
(§6) The following equation was used to calculate the expected activity of mixtures containing two active ingredients, A and B:
(§7) A=observed efficacy of active ingredient A at the same concentration as used in the mixture;
(§8) B=observed efficacy of active ingredient B at the same concentration as used in the mixture.

[2] = system: Echinochloa colonum (junglerice); assay: as above; settings: 60 days after application
Experimental: as §1, §2, §3, §4, §5, §6, §7, §8

SEBEX = assay: as above; settings: 22 to 54 days after application
Experimental: as §1, §2, §3, §4, §5, §6, §7, §8

[3] = system: Ischaemum rugosum (saramollagrass); assay: as above; settings: 60 days after application
Experimental: as §1, §2, §3, §4, §5, §6, §7, §8

[4] = system: Ipomoea spp. (morningglory); assay: as above; settings: Texas, USA, 22 to 54 days after application
Experimental: as §1, §2, §3, §4, §5, §6, §7, §8

[5] = system: Alopecurus myosuroides (blackgrass); assay: Preemergence field trial in perennial tree crops, % weed control; settings: 206 days after application
Experimental: as §1, §2, §3, §4, §5, §6, §7, §8

SMILES: CCC(CC)Nc1c([N+](=O)[O-])cc(C)c(C)c1[N+](=O)[O-] [Pendimethalin, N-(1-ethylpropyl)-3,4-dimethyl-2,6-dinitrobenzenamine]
- % Visual Control ALRPH Obs ([1]; pendimethalin 1100 gai/ha, Arkansas): 0%
- % Visual Control ALRPH Obs ([1]; pendimethalin 1100 gai/ha, Texas): 0%
- % Visual Control ECHCO Obs ([2]; pendimethalin 750 gai/ha): 55%
- % Visual Control SEBEX Obs (SEBEX; pendimethalin 1100 gai/ha): 14%
- % Visual Control ISCRU Obs ([3]; pendimethalin 750 gai/ha): 57%
- % Visual Control IPOSS Obs ([4]; pendimethalin 1100 gai/ha): 35%
- % Control ALOMY Obs ([5]; pendimethalin 500 gai/ha): 0%
- % Control ALOMY Obs ([5]; pendimethalin 1000 gai/ha): 7%

SMILES: COc1cnc(OC)n2nc(NS(=O)(=O)c3c(OCC(F)F)cccc3C(F)(F)F)nc12 [Penoxsulam]
- % Visual Control ALRPH Obs ([1]; penoxsulam 20 gai/ha, Arkansas): 43%
- % Visual Control ALRPH Obs ([1]; penoxsulam 20 gai/ha, Texas): 74%
- % Visual Control ECHCO Obs ([2]; penoxsulam 20 gai/ha): 25%
- % Visual Control SEBEX Obs (SEBEX; penoxsulam 40 gai/ha): 40%
- % Visual Control ISCRU Obs ([3]; penoxsulam 30 gai/ha): 35%
- % Visual Control IPOSS Obs ([4]; penoxsulam 20 gai/ha): 21%
- % Control ALOMY Obs ([5]; penoxsulam 10 gai/ha): 0%
- % Control ALOMY Obs ([5]; penoxsulam 20 gai/ha): 20%
- % Control ALOMY Obs ([5]; penoxsulam 30 gai/ha): 43%
- % Control ALOMY Obs ([5]; penoxsulam 40 gai/ha): 50%

From patent publication US20120329653A1, “SYNERGISTIC HERBICIDAL COMPOSITION CONTAINING PENOXSULAM AND PENDIMETHALIN” (DOW AGROSCIENCES LLC, priority 2011, published 2012)
